Read-outs that look alike come from different tables or passages of the source.
Legend:
PLK1 kinase = molecular target: T1, PLK1 kinase (Homo sapiens, UniProt P53350); assay: Inhibitory activity on PLK1 kinase; type: biochemical; conditions: for Imax: maximum effect caused by the compound at the test concentration; for IC50: PLK1 kinase, highest concentration 1 μM, 10 points, read-out: IC50
T1 construct: purchased Carnabio (Carna Biosciences) 05-157
Description: Detection solution PerkinElmer #TRF0218-M
Detection instrument PerkinElemer EnVision
a. Using the Echo machine, the compounds to be tested were diluted by 1:3 on a 384-well plate, and the highest concentration was 1 μM, with a total of 10 concentration points, and each concentration was tested in duplicate wells.
b. 5 μL/well of PLK1 kinase and peptide substrate mixture were added to the assay plate (containing controls).
d. The reaction was initiated by adding 5 μL/well of ATP solution;
e. The assay plate was centrifuged at 1000 rpm for about 15 seconds, a film was used to seal the assay plate which was incubated at 23° C. for a period of time;
f. A detection solution was added to all wells of the assay plate;
g. The assay plate was centrifuged at 1000 rpm for approximately 15 seconds, a film was used to seal the assay plate which was incubated at 23° C. for 60 min.
h. The assay plate was read on EnVision. The test results were analyzed using XLFIT5 software.

HCT116 cells = assay: Inhibitory activity on HCT116 cell proliferation (ATPlite); type: cell-based; conditions: Homo sapiens, HCT-116, HCT116 cells, 72 h
Description: Cell culture medium: RPMI1640+10% FBS (GBICO)
Cell culture plate: 96-well plate (Shanghai Jingan Biotechnology Co., Ltd.)
Detection kit: ATPlite 1step Luminescence (PerkinElmer)
Detection instrument: BioTek multifunctional microplate reader
2. Test method: HCT116 cells in the logarithmic growth phase were seeded into a white-wall clear-bottom 96-well plate at a density of 720 cells per well, and cultured overnight in a 37° C., 5% CO2 incubator. […] After adding the drug, culturing was continued for 72 h in a 37° C., 5% CO2 incubator.
GraphPad Prism 7.0 was used to process the data, the cell inhibition rate curve was obtained and IC50 was calculated.

[1] = Metabolic stability in mouse liver microsomes; type: in vitro ADME; conditions: for CLint scaled at 1 µM / half-life at 1 µM / microsomal CLint at 1 µM: mouse; for CLint scaled at 1 µM / half-life at 1 µM: pH 7.4; for microsomal CLint at 1 µM: pH 7.4, read-out: CLint(mic)
Outline: (§1)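 Compounds incubated at 37 °C with mouse, rat or human liver microsomes in 100 mM phosphate buffer pH 7.4, started with NADPH/MgCl2 and sampled at 0–60 min. Parent remaining quantified by LC-MS. T1/2 and CLint(mic) derived from depletion, scaled to CLint using 45 mg protein/g liver and species liver/body weight ratios.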

[2] = Metabolic stability in rat liver microsomes; type: in vitro ADME; conditions: for CLint scaled at 1 µM / half-life at 1 µM / microsomal CLint at 1 µM: rat; for CLint scaled at 1 µM / half-life at 1 µM: pH 7.4; for microsomal CLint at 1 µM: pH 7.4, read-out: CLint(mic)
Outline: as §1

[3] = Metabolic stability in human liver microsomes; type: in vitro ADME; conditions: for CLint scaled at 1 µM / half-life at 1 µM / microsomal CLint at 1 µM: human; for CLint scaled at 1 µM / half-life at 1 µM: pH 7.4; for microsomal CLint at 1 µM: pH 7.4, read-out: CLint(mic)
Outline: as §1

[4] = read-out: half inhibitory concentration

T1 sequence (P53350 whole entry): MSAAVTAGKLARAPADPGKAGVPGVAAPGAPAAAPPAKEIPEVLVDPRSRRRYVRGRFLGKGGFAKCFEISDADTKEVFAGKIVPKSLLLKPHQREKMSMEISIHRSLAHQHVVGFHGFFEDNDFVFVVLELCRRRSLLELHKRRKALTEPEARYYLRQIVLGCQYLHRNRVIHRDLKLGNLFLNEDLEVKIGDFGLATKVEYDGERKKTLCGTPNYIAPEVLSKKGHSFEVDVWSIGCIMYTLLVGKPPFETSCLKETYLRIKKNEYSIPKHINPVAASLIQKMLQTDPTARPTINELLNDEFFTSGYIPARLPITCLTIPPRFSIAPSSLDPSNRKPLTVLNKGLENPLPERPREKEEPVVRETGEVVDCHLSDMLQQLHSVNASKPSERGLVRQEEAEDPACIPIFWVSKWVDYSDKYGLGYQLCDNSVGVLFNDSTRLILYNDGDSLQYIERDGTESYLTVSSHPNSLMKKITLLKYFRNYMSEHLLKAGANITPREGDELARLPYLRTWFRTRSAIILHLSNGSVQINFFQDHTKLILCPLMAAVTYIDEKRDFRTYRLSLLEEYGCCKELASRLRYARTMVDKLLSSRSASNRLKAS

Structure (SMILES) | Imax (PLK1 kinase) [%] | IC50 (HCT116 cells; read-out: IC50) [nM] | 60 min remaining amount [1] [%] | Clearance rate [1] | CLint scaled at 1 µM [1] [mL/min/kg] | half-life at 1 µM [1] [min] | microsomal CLint at 1 µM [1] [µL/min/mg] | 60 min remaining amount [2] [%] | Clearance rate [2] | CLint scaled at 1 µM [2] [mL/min/kg] | half-life at 1 µM [2] [min] | microsomal CLint at 1 µM [2] [µL/min/mg] | 60 min remaining amount [3] [%] | Clearance rate [3] | CLint scaled at 1 µM [3] [mL/min/kg] | half-life at 1 µM [3] [min] | microsomal CLint at 1 µM [3] [µL/min/mg] | IC50 (PLK1 kinase) [nM] | IC50 (HCT116 cells; [4]) [nM]
CN1CCN(c2ccc(OCC(F)(F)F)c(Nc3ncc4c(n3)-c3c(c(C(N)=O)nn3CCO)CC4)c2)CC1 [Compound 24] | 99.48 | 32 | 58.2 | Medium | 74.4 | 73.7 | 18.8 | 47.9 | Medium | 46.4 | 53.7 | 25.8 | 40.1 | Medium | 28.6 | 43.6 | 31.8 | 1.21 | 32
CN1CCN(c2ccc(OC(F)(F)F)c(Nc3ncc4c(n3)-c3c(c(C(N)=O)cn3CCO)CC4)c2)CC1 [Compound 2] | 99.81 | 27 | 26.7 | Medium | 175 | 31.4 | 44.2 | 17.0 | Medium | 103 | 24.3 | 57 | 49.9 | Medium | 22.7 | 55 | 25.2 | 0.99 | 27
Cn1nc(C(N)=O)c2ccc3cnc(Nc4cc(N5CCN(CCO)CC5)ccc4OC(F)(F)F)nc3c21 [Compound 16] | 98.76 | 502 | 24.6 | Medium | 184 | 29.9 | 46.4 | 21.6 | Medium | 90 | 27.7 | 50.5 | 23.3 | Medium | 44.1 | 28.3 | 49 | 4.77 | 

The next lines start with the values.

Imax (PLK1 kinase) [%] | IC50 (HCT116 cells; read-out: IC50) [nM] | 60 min remaining amount [1] [%] | Clearance rate [1] | CLint scaled at 1 µM [1] [mL/min/kg] | half-life at 1 µM [1] [min] | microsomal CLint at 1 µM [1] [µL/min/mg] | 60 min remaining amount [2] [%] | Clearance rate [2] | CLint scaled at 1 µM [2] [mL/min/kg] | half-life at 1 µM [2] [min] | microsomal CLint at 1 µM [2] [µL/min/mg] | 60 min remaining amount [3] [%] | Clearance rate [3] | CLint scaled at 1 µM [3] [mL/min/kg] | half-life at 1 µM [3] [min] | microsomal CLint at 1 µM [3] [µL/min/mg] | IC50 (PLK1 kinase) [nM] | IC50 (HCT116 cells; [4]) [nM] | Structure (SMILES)
100.02 | 42 | 21.5 | Medium | 202 | 27.2 | 51 | 15.7 | Medium | 110 | 22.7 | 61 | 64.8 | Medium | 15.3 | 81.5 | 17 |  |  | CN1CCN(c2ccc(OC(F)(F)F)c(Nc3ncc4c(n3)-c3c(c(C(N)=O)nn3CCO)CC4)c2)CC1 [Onvansertib, reference compound]
99.41 | 831 | 38.6 | Medium | 123 | 44.7 | 31 | 27.8 | Medium | 74.5 | 33.5 | 41.4 | 58.5 | Medium | 17.5 | 71.4 | 19.4 | 2.49 |  | CN1CCN(c2ccc(OC(F)(F)F)c(Nc3ncc4c(n3)-c3c(c(C(=O)NN)nn3CCO)CC4)c2)CC1 [Compound 13]
99.51 | 332 | 1.33 | High | 1230 | 4.47 | 310 | 2.76 | High | 211 | 11.8 | 117 | 23.7 | Medium | 44.1 | 28.3 | 49 | 1.64 |  | CN1CCN(c2ccc(OC(F)(F)F)c(Nc3ncc4c(n3)-c3c(c(C(N)=O)nn3CCC#N)CC4)c2)CC1 [Compound 4]
99.29 | 143 | 15.9 | High | 238 | 23.1 | 60 | 21.6 | Medium | 95.4 | 26.2 | 53 | 26.5 | Medium | 39.1 | 31.9 | 43.4 | 1.28 |  | Cn1nc(C(N)=O)c2c1-c1nc(Nc3cc(N4CCN(CCO)CC4)ccc3OC(F)(F)F)ncc1CC2 [Compound 20]

From US20260176249A1, “PROTEIN KINASE INHIBITOR, PREPARATION METHOD THEREFOR, AND APPLICATION THEREOF” (SHANDONG LUYE PHARMACEUTICAL CO., LTD., priority 2021, published 2026)
